# Results published in PubChem BioAssay AID2305 (GlaxoSmithKline (GSK), 2010).
# Several values for one entry are separate records, joined by “and”; a condition that tells them apart may be missing. Equal values may be shown once.
# Tested on: P. falciparum 3D7 growth, pLDH absorbance
# Test: P. falciparum 3D7 growth inhibition, dose response, strain 3D7 (AID 2305)
row,SMILES,IC50
1,COc1ccc(-c2cc(-c3nc4ccc(CN)cc4[nH]3)c(=O)n(C)c2)cc1OC,1.4 µM
2,CNc1ccc(CNCc2cccc(-c3ccc(-c4nc5ccc(C(F)(F)F)cc5[nH]4)cc3)c2)cc1,0.11 µM
3,Cc1c(-c2ccc(C(=O)NC3CC(C)(C)NC(C)(C)C3)cc2)[nH]c2cc(Cl)c(Cl)cc12,0.75 µM
4,Cc1[nH]c2cccc(F)c2c(=O)c1Cc1ccc(Cl)cc1 (tested in a mixture with another compound),0.23 µM and 0.35 µM
5,O=C(CC1NC(=O)c2ccccc21)Nc1ccc(-c2ccc(-c3nc4ccc(C(F)(F)F)cc4[nH]3)cc2)cc1 (centres undefined),0.47 µM
6,c1ccc(Oc2ccc(Nc3ccnc4ccc(-c5ccccn5)cc34)cc2)cc1,1.1 µM
7,O=C(/C=C/c1ccc(Cl)c(Cl)c1)NCCCCCN1CCC(NC(=O)c2ccc(F)cc2F)CC1,0.76 µM
8,CCCCCCCN1CC[C@@H](CCC(O)c2ccnc3ccc(OC)cc23)[C@@H](CC)C1 (some centres undefined),0.75 µM
9,CCN1CCN(c2ccc(NC(=O)c3cc4c(C)nn(-c5ccccc5)c4s3)cc2C)CC1,0.76 µM
10,CNC(=O)/C=C/c1cc(NC(=O)Nc2cc(C)nc3c(F)cccc23)ccc1OC,0.91 µM
11,O=S(=O)(NCCN1CCCC1)c1cccc(-c2cccc(CNCc3ccsc3)c2)c1,0.87 µM
12,O=C(CSc1nc(-c2ccccc2Cl)ns1)Nc1cccc(F)c1,1.11 µM
13,CCCN(CCC)CCCN(CCCN(CCC)CCC)c1cc(C)nc(Nc2ccc3cc(Br)ccc3c2)n1,0.21 µM
14,COc1cccc2cc(C(=O)N[C@@H](CC(C)C)C(=O)NC(/C=N/NC(=O)c3ccccc3)CCc3ccccc3)oc12 (some centres undefined),0.58 µM
15,CO/C(=C\C=C\c1cc2cc(Cl)c(Cl)cc2[nH]1)C(=O)NCCCN1CCN(c2ccncc2)CC1,0.73 µM
16,Clc1cccc(Cl)c1CCNCC1CCN(CC2CCCCC2)CC1,0.21 µM
17,CN1CCN(c2ccnc3ccc(NC(=O)Nc4ccc(Cl)c(Cl)c4)cc23)CC1,0.88 µM
18,O=C(Nc1ccccc1)N(Cc1cccc(-c2ccc(CNCCc3ccccc3)cc2)c1)C1CCN(Cc2ccccc2)CC1,0.35 µM
19,CCCc1cc(Cc2cnc(N)nc2N)cc(CC)c1O,1.32 µM
20,FC(F)(F)c1ccc2nc(-c3cccc(-c4cccc(CNCC5CCCO5)c4)c3)[nH]c2c1 (centres undefined),0.42 µM
21,O=C(/C=C/c1cc(F)c(F)cc1F)N1CCC(CN2CCC(c3c[nH]c4ccccc34)CC2)CC1,1 µM
22,COc1cc([N+](=O)[O-])ccc1NC(=O)c1cc(Cl)ccc1O,1.14 µM
23,CN1CCC(Oc2ccc(CN3CC[C@H](NC(=O)c4ccc(F)c(F)c4)C3)c3ccccc23)C1 (some centres undefined),1.08 µM
24,CN1CCc2ccc(NC(=O)Nc3ccc(-c4ccccc4)cc3)cc2C1,0.51 µM
25,Cc1ccc(N(CCC(=N)N)Cc2ccccc2)cc1,0.66 µM

row,SMILES,IC50
1,CCCCN=C(N)c1ccc(OCCCCCOc2ccc(C(N)=NCCCC)cc2)cc1,0.11 µM
2,COc1cccc2c(NN=Cc3cccc(Cl)c3)cc(C)nc12,0.71 µM
3,Clc1ccccc1CNc1noc(-c2sccc2Br)n1,0.79 µM
4,COc1ccc2nccc([C@@H](O)CN3CCC(NCc4nc5ccccc5s4)CC3)c2c1,0.93 µM
5,Cc1[nH]c2ccc(C#N)cc2c(=O)c1Br,0.64 µM
6,N=C(N)c1ccc(OCc2cccc(COc3ccc(C(=N)N)cc3I)c2)c(I)c1,0.34 µM
7,CCOC(=O)CCCOc1c(OC)cc(Cc2cnc(N)nc2N)cc1OC,0.78 µM
8,COc1ccccc1C1CCN(C2CCC(NC(=O)c3cc4ccccc4[nH]3)CC2)CC1 (centres undefined),1.21 µM
9,CC1c2cccc(O)c2CCN1CCc1ccc(Cl)c(Cl)c1 (centres undefined),0.14 µM
10,CCOc1cc(C)ccc1C1CCN(CCCCNC(=O)c2ccc(-c3ccc(C(F)(F)F)cn3)cc2)CC1,0.79 µM
11,CCc1cn2c3c(cc(C(=O)N[C@@H](Cc4ccccc4)[C@H](O)CN[C@@H](C)CC)cc13)N(C)S(=O)(=O)CC2,0.07 µM
12,CN(C)Cc1ccc(-c2ccc3c(Nc4ccc(Oc5ccccc5)cc4)ccnc3c2)o1,0.79 µM
13,CCc1cc(Br)c(CNCCCNc2cc(=O)c3ccccc3[nH]2)s1,0.95 µM
14,O=C(/C=C/c1ccc(Cl)c(Cl)c1)NCCCCCN1CCC(NC(=O)Nc2ccc(Cl)c(Cl)c2)CC1,0.89 µM
15,CCCN(CCC)CCCOc1ccc(C(=O)c2c(-c3ccc(OCCCN(CCC)CCC)cc3)oc3ccc(Cl)cc23)cc1,0.34 µM
16,COc1cc(Cc2cnc(N)nc2N)ccc1OCc1ccc(NC(C)=O)cc1,0.37 µM
17,COc1ccc(C2C(C(=O)OC3CCCC3)=C(C)NC3=C2C(=O)CCC3)cc1Br (centres undefined),0.59 µM
18,Cc1cccc2[nH]c(-c3ccc(-c4ccc(CNCCc5ccncc5)cc4)cc3)nc12,0.21 µM
19,O=S(=O)(NCCN1CCCC1)c1cccc(-c2ccc(CNCc3ccsc3)cc2)c1,0.8 µM
20,Cc1cc(C(=O)CN2C(=O)NC3(CCCc4ccccc43)C2=O)c(C)n1Cc1ccc(F)cc1 (centres undefined),0.97 µM
21,O=C(CCc1cccnc1)Nc1cccc(-c2ccc(-c3nc4ccc(C(F)(F)F)cc4[nH]3)s2)c1,0.95 µM
22,O=C(Nc1ccccc1Cc1ccccc1)c1ccccc1C(F)(F)F,0.78 µM
23,Cc1ccc(-c2cc(C(=O)Nc3ccc(S(=O)(=O)N4CCCC(C)C4)cc3)[nH]n2)c(O)c1 (centres undefined),0.28 µM
24,CCCCCCCc1c(C)[nH]c2ccc(F)cc2c1=O,0.29 µM
